Test results taken from patent US9371328B2, “Imidazopyridazinecarbonitriles useful as kinase inhibitors” (BRISTOL-MYERS SQUIBB COMPANY, priority 2008, dated 2016).

Legend:
[1] = biological target: T1, CK2A2 (CK2α′/β) (Homo sapiens, UniProt P19784); assay: CK2 kinase assay, CK2A2 (CK2α′/β); format: biochemical; settings: Table 1; read-out: CK2A2 (CK2α′/β) (IC50)
T1 construct: made in house
Protocol: (§1) The effectiveness of compounds of the present invention as inhibitors of protein kinases can be readily tested by assays known to those skilled in the art. For example, in vitro protein kinase assays may be conducted with a relevant purified protein kinase and an appropriate synthetic substrate to determine the inhibitory activity of the compounds. […] Reaction mixtures were incubated at 30° C. for 1 hour, and reaction products were captured by binding to phosphocellulose (P81) filter plates. Incorporation of radioactive phosphate into the peptide substrate was determined by liquid scintillation counting. The potency of compounds in inhibiting CK2 is expressed as IC50, defined as the concentrations of compounds required to inhibit the enzymatic activity by 50%.
(§2) The inhibitory activity of the instant compounds may also be measured by recombinant CK2 holoenzyme kinase assays. The assays were performed in U-bottom 384-well plates. The final assay volume was 30 μl prepared from 15 μl additions of enzyme and substrates (fluoresceinated peptide FL-RRRADDSDDDDD-NH2 and ATP) and test compounds in assay buffer (20 mM HEPES pH 7.4, 10 mM MgCl2, 100 mM NaCl, 0.015% Brij35 and 0.25 mM DTT). The reaction was initiated by the combination of bacterially expressed, CK2 α/β or CK2 α′/β holoenzyme with substrates and test compounds. The reaction was incubated at room temperature for 60 minutes and terminated by adding 30 μl of 35 mM EDTA to each sample. The reaction mixture was analyzed on the Caliper LABCHIP® 3000 (Caliper, Hopkinton, Mass.) by electrophoretic separation of the fluorescent substrate and phosphorylated product. Inhibition data were calculated by comparison to no enzyme control reactions for 100% inhibition and vehicle-only reactions for 0% inhibition. The final concentration of reagents in the CK2 α/β assay was 25 μM ATP, 1.5 μM FL-RRRADDSDDDDD-NH2, […] CK2 α/β holoenzyme, and 1.6% DMSO. The final concentration of reagents in the CK2 α′/β assay was 10 μM ATP, 1.5 μM FL-RRRADDSDDDDD-NH2, 100 pM CK2 α′/β holoenzyme, and 1.6% DMSO. Dose response curves were generated to determine the concentration required inhibiting 50% of kinase activity (IC50). Compounds were dissolved at 10 mM in dimethylsulfoxide (DMSO) and evaluated at eleven concentrations. IC50 values were derived by non-linear regression analysis.

[2] = test system: HCT116; assay: Cell proliferation inhibition assay (MTT/MTS); format: cell-based; settings: Homo sapiens, HCT-116, Table 1, 72 h with compound
Protocol: Compounds were evaluated for their ability to inhibit cell proliferation, using an assay that measures mitochondrial metabolic activity, that is directly correlated with cell numbers. Cells were plated at 2000 cells/well in 96-well plates and were cultured for 24 h in RPMI-1640 supplemented with 2% fetal bovine serum, before test compounds were added. Compounds were diluted in culture medium such that the final concentration of dimethyl sulfoxide never exceeded 1%. Following the addition of compounds, the cells were cultured for an additional 72 h before cell viability was determined by measuring the conversion of 3-(4,5-dimethylthiazol-2-yl)-2,5-diphenyltetrazolium bromide (MTT) dye using the CellTiter96 kit (Promega) or by measuring the conversion of [3-(4,5-dimethylthiazol-2-yl)-5-(3-carboxymethoxyphenyl)-2-(4-sulfophenyl)-2H-tetrazolium (MTS) dye using the CELLTITER 96® AQueous (Promega).

[3] = biological target: T2, CK2A1 (CK2α/β) (Homo sapiens, UniProt P68400); assay: CK2 kinase assay, CK2A1 (CK2α/β); format: biochemical; settings: Table 1; read-out: CK2A1 (CK2α/β) (IC50)
T2 construct: made in house
T2 sequence (P68400 whole entry, species assumed): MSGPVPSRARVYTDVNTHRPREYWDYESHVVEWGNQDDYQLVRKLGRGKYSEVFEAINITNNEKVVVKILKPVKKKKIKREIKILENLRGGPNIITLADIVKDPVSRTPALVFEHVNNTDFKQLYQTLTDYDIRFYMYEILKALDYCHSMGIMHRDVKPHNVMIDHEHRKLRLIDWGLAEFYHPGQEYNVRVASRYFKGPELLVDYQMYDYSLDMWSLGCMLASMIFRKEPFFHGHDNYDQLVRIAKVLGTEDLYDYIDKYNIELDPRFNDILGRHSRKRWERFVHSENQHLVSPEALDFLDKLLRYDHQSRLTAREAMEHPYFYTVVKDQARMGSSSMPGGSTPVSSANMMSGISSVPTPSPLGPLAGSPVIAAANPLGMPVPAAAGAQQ
T2 sequence (P67870 whole entry partner, species assumed): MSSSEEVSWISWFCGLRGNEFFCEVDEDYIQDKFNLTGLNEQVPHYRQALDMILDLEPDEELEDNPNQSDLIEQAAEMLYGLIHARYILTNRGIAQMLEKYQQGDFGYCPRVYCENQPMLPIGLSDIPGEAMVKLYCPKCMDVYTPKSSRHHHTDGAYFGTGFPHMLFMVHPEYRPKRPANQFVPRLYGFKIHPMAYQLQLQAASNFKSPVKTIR
Protocol: as §1, §2

T1 sequence (P19784 whole entry, species assumed): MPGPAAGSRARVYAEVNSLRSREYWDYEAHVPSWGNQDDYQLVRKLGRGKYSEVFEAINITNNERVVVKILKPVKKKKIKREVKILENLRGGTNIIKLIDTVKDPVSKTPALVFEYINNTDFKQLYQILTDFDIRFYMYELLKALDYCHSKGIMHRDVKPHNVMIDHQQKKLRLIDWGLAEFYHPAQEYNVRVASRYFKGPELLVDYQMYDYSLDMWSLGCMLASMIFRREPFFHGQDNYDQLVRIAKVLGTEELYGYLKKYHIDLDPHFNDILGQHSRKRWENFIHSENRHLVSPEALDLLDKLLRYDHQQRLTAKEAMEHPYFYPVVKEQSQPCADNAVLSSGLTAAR
T1 sequence (P67870 whole entry partner, species assumed): as the sequence (P67870 whole entry partner, species assumed) above

IC50 [1] | IC50 [2] | IC50 [3] | SMILES
4.6 nM | 45 nM | 19.7 nM | COc1ccc(-n2cncn2)cc1Nc1cc(NC2CC2)c2ncc(C#N)n2n1 [Example 160, 8-(Cyclopropylamino)-6-((2-methoxy-5-(1H-1,2,4-triazol-1-yl)phenyl)amino)imidazo [1,2-b]pyridazine-3-carbonitrile]
12.5 nM | > 1000 nM | 103 nM | N#Cc1cnc2c(NC3CC3)cc(Nc3cc(-n4cncn4)ccc3OC(F)(F)F)nn12 [Example 167, 8-(Cyclopropylamino)-6-((5-(1H-1,2,4-triazol-1-yl)-2-(trifluoromethoxy)phenyl)amino)imidazo[1,2-b]pyridazine-3-carbonitrile]
4.9 nM | 128 nM | 11.9 nM | N#Cc1ccnc(Nc2cc(NC3CC3)c3ncc(C#N)n3n2)c1 [Example 168, 6-((4-Cyano-2-pyridinyl)amino)-8-(cyclopropylamino) imidazo[1,2-b]pyridazine-3-carbonitrile]
3.4 nM | 65 nM | 12.2 nM | Cc1ccc(Nc2cc(Nc3ccccn3)c3ncc(C#N)n3n2)cc1C#N [Example 196, 6-((3-Cyano-4-methylphenyl)amino)-8-(2-pyridinylamino)imidazo[1,2-b]pyridazine-3-carbonitrile]
119 nM | > 10000 nM | 596 nM | N#Cc1cnc2c(NC3CC3)cc(Nc3cccc(-c4cccnc4)c3)nn12 [Example 214, 8-(Cyclopropylamino)-6-((3-(3-pyridinyl)phenyl)amino) imidazo[1,2-b]pyridazine-3-carbonitrile]
126 nM | > 10000 nM | 794 nM | Cc1ccc(Nc2cc(NC3CC3)c3ncc(C#N)n3n2)cc1CC(=O)O [Example 224, (5-((3-Cyano-8-(cyclopropylamino)imidazo [1,2-b]pyridazin-6-yl)amino)-2-methylphenyl) acetic acid]
1.1 nM | 35 nM | 8.2 nM | Cc1cc(Cl)c(Nc2cc(NC3CC3)c3ncc(C#N)n3n2)cc1C#N [Example 225, 6-((2-Chloro-5-cyano-4-methylphenyl)amino)-8-(cyclopropylamino)imidazo [1,2-b]pyridazine-3-carbonitrile]
1.7 nM | 327 nM | 9 nM | COc1ccc(C#N)cc1Nc1cc(N)c2ncc(C#N)n2n1 [Example 228, 8-Amino-6-((5-cyano-2-methoxyphenyl)amino) imidazo[1,2-b]pyridazine-3-carbonitrile]
2.3 nM | 128 nM | 7.1 nM | Cc1cc(Cl)c(Nc2cc(Nc3ccccn3)c3ncc(C#N)n3n2)cc1C#N [Example 233, 6-((2-Chloro-5-cyano-4-methylphenyl)amino)-8-(2-pyridinylamino)imidazo[1,2-b]pyridazine-3-carbonitrile]
6.4 nM | 433 nM | 25 nM | CCc1ccc(Nc2cc(NC3CC3)c3ncc(C#N)n3n2)cc1NS(C)(=O)=O [Example 235, N-(5-((3-Cyano-8-(cyclopropylamino)imidazo [1,2-b]pyridazin-6-yl)amino)-2-ethylphenyl) methanesulfonamide]
22.8 nM | 1110 nM | 102 nM | CCN(CC)c1ccc(Nc2cc(NC3CC3)c3ncc(C#N)n3n2)cc1 [Example 244, 8-(Cyclopropylamino)-6-((4-(diethylamino)phenyl)amino)imidazo[1,2-b]pyridazine-3-carbonitrile]
